For assay [1], the target named is T1, Serine/threonine-protein kinase pim-3 (Homo sapiens, UniProt Q86V86). In words: Inhibition of PIM3 (unknown origin).
The target in assay [2] is T2, Serine/threonine-protein kinase pim-2 (Homo sapiens, UniProt Q9P1W9).
Assay [3] concerns the target T3, Serine/threonine-protein kinase pim-1 (Homo sapiens, UniProt P11309).
Assay [4] concerns the target T1, Serine/threonine-protein kinase pim-3. Put plainly: Inhibition of PIM3 (unknown origin) using NH2-AGAGRSRHSSYPAGT-OH as substrate by Kinase-Glo assay.
Assay [5] has as its target T3, Serine/threonine-protein kinase pim-1. In words: Inhibition of PIM1 (unknown origin) using NH2-AGAGRSRHSSYPAGT-OH as substrate by Kinase-Glo assay.
Assay [6] addresses T2, Serine/threonine-protein kinase pim-2. Put plainly: Inhibition of PIM2 (unknown origin) using NH2-AGAGRSRHSSYPAGT-OH as substrate by Kinase-Glo assay. Background: In Kinase-Glo more light means more ATP remaining.
The target in assay [7] is T1, Serine/threonine-protein kinase pim-3. In words: Inhibition of PIM3 (unknown origin) using Biotin-AGAGRSRHSSYPAGT-OH as substrate after 2 hrs by AlphaScreen assay.
The target in assay [8] is T2, Serine/threonine-protein kinase pim-2. Put plainly: Inhibition of PIM2 (unknown origin) using Biotin-AGAGRSRHSSYPAGT-OH as substrate after 2 hrs by AlphaScreen assay. (In general: Bead proximity is the source of the signal in Alpha formats.)
The target of assay [9] is T3, Serine/threonine-protein kinase pim-1. Put plainly: Inhibition of PIM1 (unknown origin) using Biotin-AGAGRSRHSSYPAGT-OH as substrate after 2 hrs by AlphaScreen assay.
Assay [10] has as its system EOL1. Put plainly: Antitumor activity against human EOL-1 cells xenografted in po dosed mouse administered daily. The class given is functional, organism-based. Background: A xenograft is tissue or cells of one species grown in another, often human tumour cells in immunodeficient mice.

For orientation: Ki means the equilibrium dissociation constant of an inhibitor or competing ligand from its target. A high value points to lower affinity.

T3 sequence (P11309 whole entry): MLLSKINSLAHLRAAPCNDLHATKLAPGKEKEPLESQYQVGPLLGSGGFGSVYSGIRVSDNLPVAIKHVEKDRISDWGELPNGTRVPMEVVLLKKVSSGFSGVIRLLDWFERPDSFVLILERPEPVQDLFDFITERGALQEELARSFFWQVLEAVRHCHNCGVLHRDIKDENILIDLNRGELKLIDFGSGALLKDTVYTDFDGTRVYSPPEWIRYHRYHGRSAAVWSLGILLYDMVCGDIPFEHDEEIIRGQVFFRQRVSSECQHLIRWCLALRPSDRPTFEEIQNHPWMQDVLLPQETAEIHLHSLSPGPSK
T2 sequence (Q9P1W9 whole entry): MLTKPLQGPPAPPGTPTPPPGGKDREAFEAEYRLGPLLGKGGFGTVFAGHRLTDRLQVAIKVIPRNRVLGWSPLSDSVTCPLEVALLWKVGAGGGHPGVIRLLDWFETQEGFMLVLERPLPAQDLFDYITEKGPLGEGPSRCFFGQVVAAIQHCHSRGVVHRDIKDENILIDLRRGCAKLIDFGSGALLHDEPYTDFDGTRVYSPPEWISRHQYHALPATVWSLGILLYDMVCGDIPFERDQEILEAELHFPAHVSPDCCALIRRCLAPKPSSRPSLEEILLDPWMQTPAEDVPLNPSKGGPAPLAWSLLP

Consider `CC(=O)Nc1nc(C(=O)Nc2cncnc2N2CCCCC2)cs1`, for which the Ki in [1], in [2] and in assay [3] was more than 12500 nM throughout.
Regarding `CC(=O)Nc1nc(C(=O)Nc2ccccc2N2CCCCC2)cs1`, the inhibition constant (Ki) in assay [1] is 230 nM; in [2] it was more than 12500 nM.
On to `NCC1CCCN(c2ccncc2NC(=O)c2nccnc2N)C1` (racemic), for which the Ki in assay [1] turned out to be 50 nM; in assay [2], 700 nM; in assay [3] it was 11 nM.
Consider `COc1ccccc1-c1ccc(N)c(C(=O)Nc2cnccc2N2CCC[C@H](N)C2)n1`, for which the inhibition constant Ki in assay [2] is 8 nM; in assay [4] it was less than 1 nM; in assay [5], less than 1 nM.
For `NCC(=O)N1CCN(c2ccncc2NC(=O)c2nccnc2N)CC1`, the inhibition constant (Ki) in assay [1] came to 490 nM; in [2], 2000 nM; in assay [3] it was 122 nM.
As to `O=C(Nc1ccccc1N1CCCCC1)c1cscn1`, the results for the inhibition constant (Ki) in assay [1], in assay [2] and in assay [3] were more than 12500 nM, more than 12500 nM and 1800 nM, respectively.
With `Nc1ccc(-c2ccccc2Cl)nc1C(=O)Nc1cnccc1N1CCC[C@H](N)C1`, the Ki in assay [4], in [6] and in assay [5] was less than 1 nM each time.
Consider `Nc1nccnc1C(=O)Nc1cnccc1N1CCCCC1`, for which the Ki was 90 nM in assay [1], 1600 nM in assay [2] and 30 nM in assay [3].
`Nc1ccc(-c2ccncc2)nc1C(=O)Nc1cnccc1N1CCC[C@H](N)C1`: the values for the Ki in [1], in [2] and in assay [5] were 5 nM, 6 nM and less than 1 nM, respectively.
`Nc1ccc(-c2ccccc2C(F)(F)F)nc1C(=O)Nc1cnccc1N1CCC[C@H](N)C1`: the results for the inhibition constant (Ki) in assay [1], in [2] and in assay [3] were 3 nM, 7 nM and 3 nM, respectively.
For `CC(=O)Nc1nc(C(=O)Nc2cnc(N)nc2N2CCCCC2)cs1`, the Ki in assay [1], in assay [2] and in [3] was more than 12500 nM in each case.
`Nc1nccnc1C(=O)Nc1cnccc1N1CCNCC1`: the inhibition constant (Ki) was 1000 nM in assay [1], more than 12500 nM in assay [2] and 810 nM in assay [3].
Consider `Nc1nccnc1C(=O)Nc1ccccc1N1CCCCC1`, for which the inhibition constant (Ki) came to 1500 nM in assay [1], 7000 nM in assay [2] and 460 nM in assay [3].
For `CC(=O)Nc1nc(C(=O)Nc2cnccc2N2CCCCC2)cs1`, the Ki in assay [1] was 220 nM; in assay [2], more than 12500 nM; in [3], 61 nM.
`Nc1ccc(-c2c(F)cccc2F)nc1C(=O)Nc1cnccc1N1CCC[C@H](N)C1`: the Ki in assay [7] turned out to be 0.006 nM; in [8] it was 0.004 nM; in assay [9], 0.002 nM.
Turning to `O=C(Nc1ccccc1N1CCCCC1)c1ncc[nH]1`, the inhibition constant (Ki) in assay [1], in [2] and in assay [3] was more than 12500 nM in each case.
In the case of `Nc1ccc(Oc2ccccc2)nc1C(=O)Nc1cnccc1N1CCC[C@H](N)C1`, the figures for the Ki in [1], in [2] and in assay [3] were 15 nM, 122 nM and 4 nM, respectively.
`NCCC(=O)N1CCN(c2ccncc2NC(=O)c2nccnc2N)CC1`: the inhibition constant (Ki) in [1] came out at 180 nM; in assay [2], 680 nM; in assay [3], 56 nM.
For `Nc1ccc(-c2c(F)cccc2F)nc1C(=O)Nc1cnccc1N1CC[C@@H](O)[C@H](N)C1`, in that order: 0.007 nM, 0.006 nM and 0.002 nM.
For `O=C(Nc1ccccc1N1CCCCC1)c1ncccc1O`, the Ki in assay [1] was more than 12500 nM; in [2] it was more than 12500 nM; in assay [3] it was 12300 nM.
Regarding `Nc1ccc(-c2cccnc2)nc1C(=O)Nc1cnccc1N1CCC[C@H](N)C1`, the results for the inhibition constant Ki in assay [1], in assay [2] and in [5] were 4 nM, 12 nM and less than 1 nM, respectively.
`Nc1ccc(-c2ccccn2)nc1C(=O)Nc1cnccc1N1CCC[C@H](N)C1`: the values for the inhibition constant Ki in assay [1], in assay [2] and in assay [5] were 3 nM, 6 nM and less than 1 nM, respectively.
`C[C@H]1CN(c2ccncc2NC(=O)c2ccc(F)c(-c3c(F)cccc3F)n2)C[C@@H](N)[C@@H]1O`: the Activity result in assay [10] was “Dose-dependent effect”.
Regarding `Nc1cccc(C(=O)Nc2ccccc2N2CCCCC2)n1`, the results for the Ki in [1], in assay [2] and in [3] were 11000 nM, more than 12500 nM and 2300 nM, respectively.
As to `CC(=O)Nc1nc(C(=O)Nc2ccncc2N2CCCCC2)cs1`, the figures for the Ki in [1], in [2] and in assay [3] were 140 nM, 6300 nM and 59 nM, respectively.
As to `Nc1nccnc1C(=O)Nc1cnccc1N1CCC[C@H](N)C1`, the inhibitory constant (Ki) was found to be 20 nM in assay [1] and 70 nM in assay [2].
Take `Nc1nccc(-c2ccc(N)c(C(=O)Nc3cnccc3N3CCC[C@H](N)C3)n2)n1`: the Ki in assay [1] was found to be 3 nM; in [2], 16 nM; in [3], 1 nM.
Turning to `CN1CCC(CNc2ccc3ncc(-c4cccc(OC(F)(F)F)c4)n3n2)CC1` [SGI-1776], the affinity in assay [1] corresponds to a Ki of 24 nM.
With `Nc1cccnc1C(=O)Nc1ccccc1N1CCCCC1`, the Ki in [1] was 12000 nM; in [2], more than 12500 nM; in assay [3], 3300 nM.
With `Nc1cccnc1C(=O)Nc1cnccc1N1CCC[C@H](N)C1`, the figures for the inhibition constant Ki in [1], in assay [2] and in [3] were 20 nM, 110 nM and 18 nM, respectively.
Consider `CC(=O)Nc1nc(C(=O)Nc2cnc(N)cc2N2CCCCC2)cs1`, for which the inhibitory constant (Ki) in assay [1] is 1700 nM; in assay [2], more than 12500 nM; in assay [3], 1000 nM.

Source of the values: ChEMBL document CHEMBL3102815, “Structure Guided Optimization, in Vitro Activity, and in Vivo Activity of Pan-PIM Kinase Inhibitors” (ACS Med Chem Lett, 2013).
